The test system of assay [1] is embryonic atrial-like cardiomyocytes. The assay is described as follows: Intracellular action potential recording with sharp microelectrodes, embryonic atrial-like cardiomyocytes in EBs. The assay is classed as cell-based, human. An excerpt: The applicants here have determined that the HERG channel response of cardiomyocytes in culture created from human embryonic stem cells can be tested and that they do have the same responsive characteristics as mature heart cells in adult humans. Shown in FIG. 5 is an experiment conducted on an atrial type cell, which is a cardiomyocyte in an EB in culture. Note that the electrical profile of the potential generated by that cell, labeled basal in FIG. 5, is characteristic of an embryonic atrial type action potential. To the culture in which that basal signal was being observed, 500 nanomolar E4031 was added. E4031 is a known highly specific HERG channel blocker which blocks the rapid delayed rectifying potassium current (IKr) in adult human heart cells. The addition of that chemical to the medium in which the EB was cultured led to the modification of the action potential generated by that atrial type cell, as illustrated by the curve marked “500 nM E4031” in FIG. 5. The action potential was prolonged due to delayed return to a resting state. This is precisely the effect that this molecule, E4031, is known to have on adult heart cells and precisely the effect that one would predict from the blockage of the HERG channel.
(§1) A single beating, microdissected EB outgrowth was cultured on a glass coverslip for 1-10 days. The coverslip was then attached to the bottom of an experimental chamber mounted on an inverted microscope (Nikon Diaphot 200). The EBs were perfused with Tyrodes solution consisting of (mmol/L): 140 NaCl, 1 MgCl2, 10 HEPES, 10 Glucose, 1.8 CaCl2, pH 7.4 with NaOH at 37° C. Contractions were measured using video edge detection. For intracellular electrophysiology experiments, sharp glass microelectrodes were fabricated with resistances of 30-100 MΩ when filled with 3 mol/L KCl. Spontaneously beating EBs were impaled with the microelectrodes and pipette capacitance was nulled. […] In some experiments, the preparation underwent electrical field stimulation at rates from 1 to 3 Hz. Data were digitized at 20 kHz and filtered at 2 kHz. APs were analyzed using pClamp8.02 (Axon Instruments, Foster City, Calif.) and Origin 6.0 software (Microcal Inc, Northampton, Mass.) to determine AP duration at 50% and 90% of repolarization (APD50 and APD90), AP amplitude (APA), maximum diastolic potential (MDP), and the maximum rate of rise of the AP upstroke (dV/dtmax).
Repolarization of the cardiac action potential is due to multiple ionic currents with an important role played by voltage gated K+ channels; however, there is significant species variability of the exact type of K+ channels present. In human heart, current through HERG potassium channels (KCNH2), IKr, plays a major role in repolarization of the action potential. […]

Assay [2] relates to embryonic ventricular-like cardiomyocytes. The format is cell-based. The settings on record: 500 nM E-4031.
Assay [3] deals with human embryonic stem cell-derived cardiomyocytes. The assay is described as follows: Intracellular action potential recording with sharp microelectrodes, cell type not specified. The assay is classed as cell-based. The settings on record: 500 nM E-4031. Here is the method: as §1
Repolarization of the cardiac action potential is due to multiple ionic currents with an important role played by voltage gated K+ channels; however, there is significant species variability of the exact type of K+ channels present. […]

Assay [4] concerns human embryonic stem cell-derived cardiomyocytes (beating EB outgrowths). Description: Contraction measurements of beating EB outgrowths by video edge detection during electrical field stimulation. The assay is classed as cell-based. The settings on record: 1 micromolar, EB electrically stimulated at 1 hertz, basal level defined as 100, FIG. 1. The source says:
One problem in the testing of cardiomyocytes in EBs is that the rate of spontaneous beating is variable can be dependent on a variety of factors. […] This can be readily done by applying an electrical field stimulation to the EB. This is done most simply by applying electrodes to opposite sides of the culture container in which the EB is contained. […] It is necessary as a part of this process to maintain the EB culture at a constant temperature, since temperature changes can also effect the amplitude of EB beats. It is possible to optically scan the EBs during such beating, using imaging processing observing the EB with video microscopy, to determine the amplitude of the beats which occur in such an EB. […] Additionally other properties of the beat can be monitored such as the rate of contraction and relaxation of the embryoid body providing additional mechanistic information. […]
Contractions were measured using video edge detection. […] Individual beating EBs were monitored with Video Edge Detector VED 105 (Crescent Electronics) through CCD BW Camera NL-2332 (National Electronic) and Sony BW Video Monitor PVM-97 (Sony Corp). The twitch responses at sharp edge of beating EB outgrowth were recorded at 1 kHz through DigiData 1200 A/D converter with pClamp 8.2 acquisition software (both from Axon Instrument, Foster City, Calif.). […]

For the compound `Cc1cccc(CCN2CCC(C(=O)c3ccc(NS(C)(=O)=O)cc3)CC2)n1` [E-4031], in assay [1] (500 nM E-4031), the APD50 entry is recorded as “not APD50 was significantly prolonged”, the APD90 result is “significantly prolonged” and the action potential duration entry is on record as “action potential prolongation”. Also, in assay [1] (500 nanomolar E4031 added to EB culture, atrial type cell, FIG. 5), the “action potential duration” value is reported as “prolonged”. In assay [2], the APD50 result is listed as “significant prolongation” and the action potential duration result is reported as “action potential prolongation”. The APD90 entry in assay [2] (larger effect on APD90 than APD50) is given as “significant prolongation”. Besides, in assay [3], the “APA (action potential amplitude)” value is “not statistically significant effects” and the “MDP (maximum diastolic potential)” value is “not statistically significant effects”.

With `CC(C)NCC(O)c1ccc(O)c(O)c1` (stereo not shown) [isoproterenol], the “amplitude of the beat or contraction of the EB” value in assay [4] is listed as “increases dramatically”.
